According to the NIST ThermoML archive (doi:10.1021/je1007197):
Numbers after ± are expanded uncertainties.

Test: xn = mol fraction of the nth substance listed
Conditions: Liquid, Hot wire method

Question: With `CCCCOCCO` [2-butoxyethan-1-ol] + O as the compound, how does the thermal conductivity (304.15 K, 100 kPa, x1 = 0.0478) read?
Answer: Its thermal conductivity is 0.4533 ± 0.0027 W/m/K.

Question: And the thermal conductivity (304.15 K, 100 kPa, x1 = 0.1732)?
Answer: The thermal conductivity was 0.2813 ± 0.0017 W/m/K.

Question: And the thermal conductivity (304.15 K, 100 kPa, x1 = 0.5)?
Answer: The thermal conductivity was 0.1837 ± 0.0011 W/m/K.

Question: And the thermal conductivity (304.15 K, 100 kPa, x1 = 0.75)?
Answer: Its thermal conductivity is 0.1655 ± 0.001 W/m/K.

Question: And the thermal conductivity (304.15 K, 10300 kPa, x1 = 0.5)?
Answer: The thermal conductivity was 0.1877 ± 0.0012 W/m/K.

Question: What about the thermal conductivity (304.15 K, 10300 kPa, x1 = 0.75) of the same compound?
Answer: The thermal conductivity was 0.169 ± 0.0011 W/m/K.

Question: What about the thermal conductivity (304.15 K, 14200 kPa, x1 = 0.0478) of the same compound?
Answer: Its thermal conductivity is 0.4568 ± 0.0027 W/m/K.

Question: What about the thermal conductivity (304.15 K, 15000 kPa, x1 = 0.5) of the same compound?
Answer: The thermal conductivity was 0.189 ± 0.0012 W/m/K.

Question: What about the thermal conductivity (304.15 K, 19300 kPa, x1 = 0.75) of the same compound?
Answer: Its thermal conductivity is 0.1717 ± 0.0011 W/m/K.

Question: And the thermal conductivity (304.15 K, 20300 kPa, x1 = 0.1732)?
Answer: The thermal conductivity was 0.2857 ± 0.0018 W/m/K.

Question: What about the thermal conductivity (304.15 K, 26700 kPa, x1 = 0.5) of the same compound?
Answer: The thermal conductivity was 0.1936 ± 0.0012 W/m/K.

Question: What about the thermal conductivity (304.15 K, 27300 kPa, x1 = 0.0478) of the same compound?
Answer: The thermal conductivity was 0.4622 ± 0.0027 W/m/K.

Question: And the thermal conductivity (304.15 K, 30000 kPa, x1 = 0.1732)?
Answer: The thermal conductivity was 0.2896 ± 0.0018 W/m/K.

Question: What about the thermal conductivity (304.15 K, 39500 kPa, x1 = 0.75) of the same compound?
Answer: The thermal conductivity was 0.1771 ± 0.0011 W/m/K.

Question: And the thermal conductivity (304.15 K, 41800 kPa, x1 = 0.0478)?
Answer: The thermal conductivity was 0.468 ± 0.0028 W/m/K.

Question: What about the thermal conductivity (304.15 K, 41800 kPa, x1 = 0.5) of the same compound?
Answer: The thermal conductivity was 0.1963 ± 0.0012 W/m/K.

Question: What about the thermal conductivity (304.15 K, 47200 kPa, x1 = 0.1732) of the same compound?
Answer: The thermal conductivity was 0.2942 ± 0.0019 W/m/K.

Question: And the thermal conductivity (304.15 K, 54700 kPa, x1 = 0.5)?
Answer: Its thermal conductivity is 0.1995 ± 0.0012 W/m/K.

Question: And the thermal conductivity (304.15 K, 54700 kPa, x1 = 0.75)?
Answer: The thermal conductivity was 0.1812 ± 0.0011 W/m/K.

Question: And the thermal conductivity (304.15 K, 55400 kPa, x1 = 0.0478)?
Answer: Its thermal conductivity is 0.4704 ± 0.0028 W/m/K.

Question: What about the thermal conductivity (304.15 K, 70100 kPa, x1 = 0.0478) of the same compound?
Answer: Its thermal conductivity is 0.4758 ± 0.0028 W/m/K.

Question: What about the thermal conductivity (304.15 K, 70200 kPa, x1 = 0.1732) of the same compound?
Answer: Its thermal conductivity is 0.3008 ± 0.0019 W/m/K.

Question: What about the thermal conductivity (304.15 K, 70200 kPa, x1 = 0.5) of the same compound?
Answer: Its thermal conductivity is 0.2032 ± 0.0012 W/m/K.

Question: And the thermal conductivity (304.15 K, 76500 kPa, x1 = 0.75)?
Answer: The thermal conductivity was 0.1862 ± 0.0012 W/m/K.

Question: And the thermal conductivity (304.15 K, 83900 kPa, x1 = 0.0478)?
Answer: Its thermal conductivity is 0.478 ± 0.0028 W/m/K.

Question: And the thermal conductivity (304.15 K, 84200 kPa, x1 = 0.1732)?
Answer: Its thermal conductivity is 0.3043 ± 0.0019 W/m/K.

Question: And the thermal conductivity (304.15 K, 84200 kPa, x1 = 0.5)?
Answer: The thermal conductivity was 0.2066 ± 0.0013 W/m/K.

Question: What about the thermal conductivity (304.15 K, 91200 kPa, x1 = 0.75) of the same compound?
Answer: The thermal conductivity was 0.19 ± 0.0012 W/m/K.

Question: And the thermal conductivity (304.15 K, 98200 kPa, x1 = 0.0478)?
Answer: The thermal conductivity was 0.4845 ± 0.0029 W/m/K.

Question: And the thermal conductivity (304.15 K, 98200 kPa, x1 = 0.1732)?
Answer: Its thermal conductivity is 0.3077 ± 0.0019 W/m/K.

Question: What about the thermal conductivity (304.15 K, 98200 kPa, x1 = 0.75) of the same compound?
Answer: Its thermal conductivity is 0.1901 ± 0.0012 W/m/K.

Question: And the thermal conductivity (304.15 K, 108700 kPa, x1 = 0.5)?
Answer: Its thermal conductivity is 0.2127 ± 0.0013 W/m/K.

Question: And the thermal conductivity (304.15 K, 110400 kPa, x1 = 0.1732)?
Answer: The thermal conductivity was 0.311 ± 0.002 W/m/K.

Question: What about the thermal conductivity (304.15 K, 112100 kPa, x1 = 0.0478) of the same compound?
Answer: The thermal conductivity was 0.4875 ± 0.0029 W/m/K.

Question: And the thermal conductivity (304.15 K, 112200 kPa, x1 = 0.75)?
Answer: The thermal conductivity was 0.1951 ± 0.0012 W/m/K.

Question: What about the thermal conductivity (304.15 K, 124800 kPa, x1 = 0.5) of the same compound?
Answer: The thermal conductivity was 0.2157 ± 0.0013 W/m/K.

Question: What about the thermal conductivity (304.15 K, 126000 kPa, x1 = 0.0478) of the same compound?
Answer: The thermal conductivity was 0.4917 ± 0.0029 W/m/K.

Question: What about the thermal conductivity (304.15 K, 126200 kPa, x1 = 0.1732) of the same compound?
Answer: The thermal conductivity was 0.3147 ± 0.002 W/m/K.

Question: What about the thermal conductivity (304.15 K, 127600 kPa, x1 = 0.75) of the same compound?
Answer: The thermal conductivity was 0.1976 ± 0.0012 W/m/K.

Question: And the thermal conductivity (304.15 K, 138700 kPa, x1 = 0.0478)?
Answer: Its thermal conductivity is 0.4958 ± 0.0029 W/m/K.

Question: What about the thermal conductivity (304.15 K, 140100 kPa, x1 = 0.1732) of the same compound?
Answer: The thermal conductivity was 0.3175 ± 0.002 W/m/K.

Question: And the thermal conductivity (304.15 K, 140100 kPa, x1 = 0.5)?
Answer: Its thermal conductivity is 0.2189 ± 0.0014 W/m/K.

Question: What about the thermal conductivity (304.15 K, 140100 kPa, x1 = 0.75) of the same compound?
Answer: The thermal conductivity was 0.2005 ± 0.0012 W/m/K.

Question: What about the thermal conductivity (304.15 K, 150600 kPa, x1 = 0.1732) of the same compound?
Answer: Its thermal conductivity is 0.3195 ± 0.0022 W/m/K.

Question: What about the thermal conductivity (304.15 K, 150600 kPa, x1 = 0.75) of the same compound?
Answer: The thermal conductivity was 0.2022 ± 0.0012 W/m/K.

Question: What about the thermal conductivity (317.15 K, 100 kPa, x1 = 0.0478) of the same compound?
Answer: Its thermal conductivity is 0.4606 ± 0.0027 W/m/K.

Question: And the thermal conductivity (317.15 K, 16400 kPa, x1 = 0.0478)?
Answer: Its thermal conductivity is 0.4669 ± 0.0028 W/m/K.

Question: What about the thermal conductivity (317.15 K, 25500 kPa, x1 = 0.0478) of the same compound?
Answer: The thermal conductivity was 0.4697 ± 0.0028 W/m/K.

Question: What about the thermal conductivity (317.15 K, 41800 kPa, x1 = 0.0478) of the same compound?
Answer: The thermal conductivity was 0.475 ± 0.0028 W/m/K.

Question: And the thermal conductivity (317.15 K, 56100 kPa, x1 = 0.0478)?
Answer: The thermal conductivity was 0.4789 ± 0.0028 W/m/K.

Question: What about the thermal conductivity (317.15 K, 70600 kPa, x1 = 0.0478) of the same compound?
Answer: Its thermal conductivity is 0.485 ± 0.0029 W/m/K.

Question: What about the thermal conductivity (317.15 K, 84200 kPa, x1 = 0.0478) of the same compound?
Answer: Its thermal conductivity is 0.4875 ± 0.0029 W/m/K.

Question: And the thermal conductivity (317.15 K, 98200 kPa, x1 = 0.0478)?
Answer: Its thermal conductivity is 0.4926 ± 0.0029 W/m/K.

Question: What about the thermal conductivity (317.15 K, 112200 kPa, x1 = 0.0478) of the same compound?
Answer: Its thermal conductivity is 0.4983 ± 0.0029 W/m/K.

Question: And the thermal conductivity (317.15 K, 124000 kPa, x1 = 0.0478)?
Answer: The thermal conductivity was 0.5008 ± 0.003 W/m/K.

Question: And the thermal conductivity (317.15 K, 141000 kPa, x1 = 0.0478)?
Answer: The thermal conductivity was 0.5066 ± 0.003 W/m/K.

Question: What about the thermal conductivity (320.9 K, 100 kPa, x1 = 0.0478) of the same compound?
Answer: Its thermal conductivity is 0.4774 ± 0.0029 W/m/K.

Question: What about the thermal conductivity (320.9 K, 2300 kPa, x1 = 0.0478) of the same compound?
Answer: The thermal conductivity was 0.4714 ± 0.0029 W/m/K.

Question: And the thermal conductivity (320.9 K, 5000 kPa, x1 = 0.0478)?
Answer: Its thermal conductivity is 0.4639 ± 0.0034 W/m/K.

Question: And the thermal conductivity (320.9 K, 7500 kPa, x1 = 0.0478)?
Answer: Its thermal conductivity is 0.4677 ± 0.0035 W/m/K.

Question: And the thermal conductivity (320.9 K, 10000 kPa, x1 = 0.0478)?
Answer: The thermal conductivity was 0.4694 ± 0.0028 W/m/K.

Question: And the thermal conductivity (320.9 K, 12500 kPa, x1 = 0.0478)?
Answer: The thermal conductivity was 0.4703 ± 0.0028 W/m/K.

Question: What about the thermal conductivity (320.9 K, 15000 kPa, x1 = 0.0478) of the same compound?
Answer: Its thermal conductivity is 0.4705 ± 0.0028 W/m/K.

Question: And the thermal conductivity (320.9 K, 19500 kPa, x1 = 0.0478)?
Answer: The thermal conductivity was 0.4737 ± 0.0033 W/m/K.

Question: What about the thermal conductivity (320.9 K, 20000 kPa, x1 = 0.0478) of the same compound?
Answer: Its thermal conductivity is 0.4742 ± 0.0033 W/m/K.

Question: And the thermal conductivity (320.9 K, 29800 kPa, x1 = 0.0478)?
Answer: The thermal conductivity was 0.4774 ± 0.0028 W/m/K.

Question: What about the thermal conductivity (320.9 K, 52500 kPa, x1 = 0.0478) of the same compound?
Answer: Its thermal conductivity is 0.4855 ± 0.0035 W/m/K.

Question: What about the thermal conductivity (320.9 K, 70200 kPa, x1 = 0.0478) of the same compound?
Answer: Its thermal conductivity is 0.4855 ± 0.0029 W/m/K.

Question: What about the thermal conductivity (320.9 K, 87700 kPa, x1 = 0.0478) of the same compound?
Answer: The thermal conductivity was 0.4986 ± 0.0038 W/m/K.

Question: And the thermal conductivity (320.9 K, 105200 kPa, x1 = 0.0478)?
Answer: Its thermal conductivity is 0.5044 ± 0.0037 W/m/K.

Question: And the thermal conductivity (320.9 K, 126200 kPa, x1 = 0.0478)?
Answer: Its thermal conductivity is 0.5123 ± 0.003 W/m/K.

Question: What about the thermal conductivity (321.15 K, 100 kPa, x1 = 0.5) of the same compound?
Answer: The thermal conductivity was 0.1829 ± 0.0011 W/m/K.

Question: What about the thermal conductivity (321.15 K, 100 kPa, x1 = 0.75) of the same compound?
Answer: Its thermal conductivity is 0.1624 ± 0.001 W/m/K.

Question: What about the thermal conductivity (321.15 K, 10000 kPa, x1 = 0.5) of the same compound?
Answer: The thermal conductivity was 0.1864 ± 0.0012 W/m/K.

Question: What about the thermal conductivity (321.15 K, 10000 kPa, x1 = 0.75) of the same compound?
Answer: Its thermal conductivity is 0.1656 ± 0.001 W/m/K.

Question: What about the thermal conductivity (321.15 K, 19300 kPa, x1 = 0.5) of the same compound?
Answer: The thermal conductivity was 0.1892 ± 0.0012 W/m/K.
